According to US20260294864A1, “PHARMACEUTICAL COMPOSITION FOR THE TREATMENT AND PREVENTION OF HPV” (NP1 SRL, priority 2022, published 2026):

How the values were obtained:
HPV transformed cells [1] = test: Anti-clonal effect on HPV transformed cells (cell line not stated); type: cell-based, human; details: for IC50: Homo sapiens, minimal concentration reducing 50% of CFU of treated versus control, read-out: CID50 (50% clonal inhibitory dose), isolated polyphenols; for IC50 / IRR (inhibitory relative rate) / anticlonogenic / anti-clonal effect: isolated compound; for IRR (inhibitory relative rate): reverse ratio of CID50 to the reference CID50 of Quercetin (=1)
Method: The inhibitory relative rate (IRR) (fourth column) provides an efficacy ranking of molecules.
The anti-clonogenic activity was evaluated both by the current standard qualitative plating efficiency assay and by quantitative live cell imaging analysis (INCUCYTE S3 Live Cell Analysis Imaging System—Sartorius Welwyn Garden City, Hertfordshire, UK). For qualitative plating efficiency assay cells were seeded at ‘clonal’ density (i.e., 0.5 cell/mm^2) either in medium containing the testing molecules or with plain medium and incubated without any further manipulation. After 9-14 days, according to the cell line specific proliferative index, the cultures were decanted and stained with 0.2% CV/methanol for 5 min at room temperature. All conditions were tested in triplicates in a 6-well culture plate. The anti-clonogenic activity of the treatments was evaluated using the colony forming units (CFU) of treated versus control cultures. The minimal concentration which could reduce 50% of the CFU of treated versus control culture was defined as colony-forming Inhibitory concentration (CID50). For quantitative evaluation cells were seeded in 96-well microplates at the above density and condition and allowed to grow the subsequent 8-day incubation in the INCUCYTE S3 Imaging System. Images were acquired at 12-hours intervals and colony formation and percentage of growth area covered (confluency) were then monitored through automated image analysis. The analysis parameters were as follows: segmentation adjustment=0.4; hole fill <5,000 μm^2; adjusted pixel=−2.

Siha cells [2] = test: Anti-clonogenic activity on SiHa cells (plating efficiency assay / live cell imaging); type: cell-based, human; details: for end-point anti-clonal effect versus control untreated cells / inhibition at 25 µM: SiHa; for end-point anti-clonal effect versus control untreated cells: FIG. 6-8; for inhibition at 25 µM: Homo sapiens, single compound, 24 hours treatment then wash-out, FIG. 12, read-out: clonal inhibition
Method: In this experiment Kaempferol and Apigenin were administered to Siha cells at decremental concentrations, either in combination or alone, as shown in the topographical map (in panel C). […] Histograms in Panel B depict the number of colonies per well as evaluated by visual inspection and count.
The Histograms in Panel B depict the number of colonies per well as evaluated by visual inspection and count. • In Panel C a topographical map of plate treatments. Each condition was assayed in duplicate.
Kaempferol, Galangin, Luteolin and their combination were administered to SiHa cells at the concentrations of 25 μM each and of 12,5/12,5/6,25 μM for their combination. Treatments were allowed to stay on cells either for 2 or 4/8/16/24 hours. After that, treatments were washed out, cells washed two times with PBS, replenished with fresh medium and the anti-clonal effect was then monitored by live cell image analysis.
(§1) A total of 6 cell lines, outlined in Table 3, were used for this study. The cell lines were obtained from Research Centres of cell biology in Italy, United Kingdom and Germany. This research raised no ethical concern being based on entirely in vitro experiments using no patients' derived information or material. In compliance with National and International ethical rules, no informed consent is needed.
(§2) HeLa cells are the oldest continuous cell lines and were originally derived from a HPV18 positive metastatic cervical carcinoma (Scherer W F et al 1953). Siha cells are an epithelioid like cell line derived from a HPV16-positive invasive cervical squamous carcinoma (Friedel F et al 1970). Ca-Ski cells are a line harboring multiple copy of transcriptionally active HPV16 genomes (Baker C C et al 1984). Both Hela and Siha were a kind gift of prof MS Campo, The Beatson Institute for Cancer Research, Glasgow, Scotland. These two cell lines because of their versatility and ease of use were used for most of experiments reported. Ca-Ski cells were obtained through the courtesy of prof. Matthias Durst, at the Deutsch Krebsforschungzentrum—Heidelberg, FRG. These cells used together with Siha provide a model for the genetic instability and variability of cervical cancers. HK-168 is an immortalized, non-tumorigenic, continuous cell line derived from human skin keratinocytes in vitro transformed with whole HPV16 genome (De Marco F et al 2007). This cell line is reputed to recapitulate le biological features of transformed dysplastic cells and was used in preliminary experiments to set the experimental dosages and conditions. The ME-180 cells are a cell line harboring a few, transcriptionally active, copies of HPV68 and provide an in vitro model for dysplastic/neoplastic lesions induced by HPV with Intermediate oncogenic Risk (Yee C C et al 1985). The HaCaT cells, derived from a solar skin lesion by Petra Boukamp et al (1988) are here used as an in vitro equivalent of Ultra-Violet induced pre-neoplastic epithelial cells to rule out possible direct toxic effects of polyphenols. Both HaCaT and ME-180, were kindly donated by Prof. Matthias Durst. Hela, Siha, Ca-Ski, ME-180 and HaCaT were all grown in high glucose DMEM supplemented with 10% fetal calf serum (FCS). The HK-168 cells, which retained the ability to terminally differentiate under high Ca^2+ and FCS concentrations, were grown in K-SFM, a chemically defined medium supplemented with human EGF and bovine pituitary extract (ThermoFisher Scientific, Life Technologies, Monza—MI). Each cell line was sub-cultured twice a week at the appropriate split ratio according to the specific proliferative index. In no case antibiotics or antimycotics were added to the culture media. For the present study, all cell lines were retrieved from an in-house cell archive facility.

HeLa cells = test: Anti-clonogenic activity on HeLa cells (plating efficiency assay / live cell imaging); type: cell-based, human; details: for Anti-clonal effect: isolated, FIG. 1; for anti-clonal effect at concentrations above CID50: higher concentrations than CID50, HeLa
Method: Panel C and D: diagrammatic topographical maps of treatments and growth conditions on plates A and B respectively.
Panel A. Hela cells were challenged with serial twofold dilutions of 50 μM Luteolin (in columns 1-6) and 100 μM Galangin (columns 7-10). Hela control untreated cells in columns 11-12.
as §1, §2
The anti-clonogenic activity was evaluated both by the current standard qualitative plating efficiency assay and by quantitative live cell imaging analysis ([…] S3 Live Cell Analysis Imaging System—Sartorius Welwyn Garden City, Hertfordshire, UK).

HPV transformed cells [3] = test: Antiproliferative effect on HPV transformed cells (cell line not stated); type: cell-based, human; details: summary statement, isolated compound
Method: (§3) For antiproliferative effect cells were seeded in 96-well microplates at 1000 cells/per well (i.e.: 30 cell/mm^2), a density allowing exponential growth rate for the subsequent 8-day incubation. After overnight adhesion cell monolayers were washed and replenished with fresh media with different testing molecules, plain medium served as cell growth control.
(§4) Cell growth was then monitored by automated INCUCTE S3 imaging Systems. Images were acquired at 12-hours intervals. The analysis parameters were as follows: segmentation adjustment=0.9; hole fill <7,000 μm^2; adjusted pixel=0.

[4] = tested on: PC3 prostate cancer cells; details: PC3 cells (Lansky E P et al 2005); cited from earlier work
Siha cells [5] = test: Antiproliferative effect on Siha cells, live cell analysis; type: cell-based, human; details: Siha 1000 cells/well; for antiproliferative effect: 50 μM, FIG. 2
Method: FIG. 2: live cell analysis of RNPs antiproliferative effect. Siha cells were seeded at 1000 cells/well in a 96 well plate and allowed to adhere overnight. The plate was then washed twice with PBS and replenished with 100 microliter/well fresh medium plus 50 μM of each compound. Images were taken every 12 hours; Growth curves were drawn plotting the percentage of confluence versus time. […] In fact, their growth curves outline a single spindle completely overlapping and masking the one of control untreated cells. Conversely, a distinct anti-proliferative effect is evident in panel B- where the growth curves of RNP 9 Kaempferol (solid squares), RNP 12 Luteolin (solid diamonds), RNP 16 Apigenin (solid circles) and control untreated cells (solid stars) are depicted. […] Each point represents the mean of six independent replicas. Bar width represents the Standard Deviation (SD). Consistent results were also obtained by HeLa and ME-180 cells
as §3, §4
Data for growth curves, anti-clonal and Antiproliferative assays were obtained from at least three independent experiments. Each data point of quantitative anti-proliferative or anti-clonal experiments represents the mean (±SD) of eight independent replicates. Data were analyzed and plotted using Prism 6.0 software (GraphPad Software, San Diego, CA).

glioma cells = details: wound-healing and Boyden Chamber assays (Lu J et al 2010); cited from earlier work
gastric cancer cells = details: wound-healing and Boyden Chamber assays (Ho H H et al 2010); cited from earlier work

O=c1c(O)c(-c2ccccc2)oc2cc(O)cc(O)c12 [Galangin]
IC50 (HPV transformed cells [1]): 25 µM
IRR (inhibitory relative rate) (HPV transformed cells [1]): 2
anticlonogenic / anti-clonal effect (HPV transformed cells [1]; summary statement): sharp anticlonogenic and antiproliferative effect
end-point anti-clonal effect versus control untreated cells (Siha cells [2]; 25.0 μM, alone): no difference to control untreated cells
inhibition at 25 µM (Siha cells [2]): ~50%
Anti-clonal effect (HeLa cells; 50 μM, HeLa): almost complete suppression of clonal activity
anti-clonal effect at concentrations above CID50 (HeLa cells; FIG. 3): completely suppressive
antiproliferative effect (HPV transformed cells [3]): sharp anticlonogenic and antiproliferative effect

O=C(O)/C=C/c1ccc(O)c(O)c1 [Caffeic acid]
clonal inhibition in combination (HPV transformed cells [1]; combined with Galangin or Quercetin, summary statement): a certain grade of clonal inhibition
anticlonogenic / anti-clonal effect (HPV transformed cells [1]; summary statement): devoid of any direct activity
anticlonogenic / anti-clonal effect (HPV transformed cells [1]; summary statement, listed as Caffeic): devoid of. any direct anticlonogenic activity
clonal inhibition in combination with Apigenin (HeLa cells; 50 μM combined with Apigenin 25 μM, HeLa, FIG. 9-11): almost complete clonal inhibition
clonal inhibition in combination with Galangin (HeLa cells; 50 μM combined with Galangin 12.5 μM, HeLa, FIG. 9-10): almost complete clonal inhibition
end point clonal assay, clonal inhibition alone (HeLa cells; 50 μM, administered alone, HeLa, FIG. 9-11): neither of them induced any effect
Anti-clonal effect (HeLa cells; 50 μM, HeLa): devoid of any significant anticlonogenic effect
synergistic effect with Galangine and Apigenin (HeLa cells; in association, HeLa, FIG. 9): synergistic effect
reduction of invasiveness [4]: 50%

O=c1c(O)c(-c2ccc(O)cc2)oc2cc(O)cc(O)c12 [Kaempferol]
IC50 (HPV transformed cells [1]): 25 µM
IRR (inhibitory relative rate) (HPV transformed cells [1]): 2
anticlonogenic / anti-clonal effect (HPV transformed cells [1]; summary statement): sharp anticlonogenic and antiproliferative effect
antiproliferative effect (Siha cells [5]): distinct, although milder effect
inhibition at 50 µM (Siha cells [5]; Homo sapiens, FIG. 2, read-out: suppression of proliferation): ~40%
clonal efficiency versus control untreated cells (Siha cells [2]; 12.5 μM, alone, Siha, FIG. 4): no difference to control untreated cells
inhibition at 25 µM (Siha cells [2]): ~50%
Anti-clonal effect (HeLa cells; 50 μM, HeLa): almost complete suppression of clonal activity
antiproliferative effect (HPV transformed cells [3]): sharp anticlonogenic and antiproliferative effect

O=C(O)c1cc(O)c(O)c(O)c1 [Gallic acid]
migration of glioma cells (glioma cells): reduce the migration
migration of gastric cancer cells (gastric cancer cells): reduce the migration

O=c1cc(-c2ccc(O)c(O)c2)oc2cc(O)cc(O)c12 [Luteolin]
IC50 (HPV transformed cells [1]): 6.25 µM
IRR (inhibitory relative rate) (HPV transformed cells [1]): 8
anticlonogenic / anti-clonal effect (HPV transformed cells [1]; summary statement): sharp anticlonogenic and antiproliferative effect
antiproliferative effect (Siha cells [5]): almost complete suppression of proliferation
antiproliferative effect (Siha cells [5]; listed as luteolin): sharp antiproliferative effect
end-point anti-clonal effect versus control untreated cells (Siha cells [2]; 6.25 μM, alone): no difference to control untreated cells
inhibition at 25 µM (Siha cells [2]): ~50%
Anti-clonal effect (HeLa cells; 50 μM, HeLa): almost complete suppression of clonal activity
IC50 (HeLa cells; Homo sapiens, HeLa, serial twofold dilutions (Luteolin from 50 μM, Galangin from 100 μM), live cell image analysis, FIG. 3, read-out: CID50 (50% clonal inhibitory dose)): 6.25 µM
inhibition at up to 50 µM (HeLa cells; Homo sapiens, wells D:1-6, serial twofold dilutions of 50 μM, HeLa, FIG. 3, read-out: anti-clonal titration, inhibition in wells D:1-6): ~50%
anti-clonal effect at concentrations above CID50 (HeLa cells; FIG. 3): completely suppressive
anti-clonal titration, inhibition in wells C:1-6 (HeLa cells; wells C:1-6, serial twofold dilutions of 50 μM, HeLa, FIG. 3): almost complete inhibition
antiproliferative effect (HPV transformed cells [3]): sharp anticlonogenic and antiproliferative effect
